The record followed here is patent US6723733B2, “Sulfonamide and carbamide derivatives of 6(5H)phenanthridinones and their uses” (Guilford Pharmaceuticals, Inc., priority 2000, dated 2004).

For orientation: pIC50 means the negative decadic logarithm of the IC50, by convention in mol/L.

pIC50: −log10 of the molar value.

For the experiment, the target named is T1, purified recombinant human PARP (Homo sapiens, UniProt P09874).
T1 construct: purchased Trevigan (Gaithersburg, Md.)
T1 sequence (P09874 whole entry): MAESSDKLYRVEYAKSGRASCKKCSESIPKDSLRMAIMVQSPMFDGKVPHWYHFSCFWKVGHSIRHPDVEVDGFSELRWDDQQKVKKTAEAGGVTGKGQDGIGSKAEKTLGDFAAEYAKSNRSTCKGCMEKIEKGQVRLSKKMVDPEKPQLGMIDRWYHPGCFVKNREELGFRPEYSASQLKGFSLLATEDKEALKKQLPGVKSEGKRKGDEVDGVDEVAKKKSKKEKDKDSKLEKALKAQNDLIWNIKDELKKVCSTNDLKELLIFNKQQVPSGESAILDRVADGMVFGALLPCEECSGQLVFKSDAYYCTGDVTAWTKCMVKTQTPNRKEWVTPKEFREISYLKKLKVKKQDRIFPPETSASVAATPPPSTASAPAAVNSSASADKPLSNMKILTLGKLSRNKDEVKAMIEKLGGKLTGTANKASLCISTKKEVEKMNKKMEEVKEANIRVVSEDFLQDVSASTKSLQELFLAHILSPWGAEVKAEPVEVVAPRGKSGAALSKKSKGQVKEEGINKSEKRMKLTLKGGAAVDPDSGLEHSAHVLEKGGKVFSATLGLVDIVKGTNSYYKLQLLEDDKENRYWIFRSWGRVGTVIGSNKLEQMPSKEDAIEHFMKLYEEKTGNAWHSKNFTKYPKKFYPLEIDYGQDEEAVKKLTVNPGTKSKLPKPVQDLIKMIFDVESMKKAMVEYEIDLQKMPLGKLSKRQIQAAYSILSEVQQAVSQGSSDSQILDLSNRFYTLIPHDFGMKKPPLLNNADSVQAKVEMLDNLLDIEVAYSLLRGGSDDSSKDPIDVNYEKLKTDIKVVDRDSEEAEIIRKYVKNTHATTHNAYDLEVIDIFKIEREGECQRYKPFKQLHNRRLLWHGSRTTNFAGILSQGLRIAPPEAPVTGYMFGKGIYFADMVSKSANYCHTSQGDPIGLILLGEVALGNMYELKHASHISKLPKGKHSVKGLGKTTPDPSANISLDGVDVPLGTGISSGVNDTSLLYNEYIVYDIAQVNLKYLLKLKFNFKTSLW
Put plainly: PARP enzyme assay (IC50), [3H]NAD incorporation. The conditions noted are these: approximate IC50 values; 25° C., 15 minutes. The format is biochemical. As for the experimental part:
The reaction is initiated by incubating the mixture at 25° C. After 15 minutes of incubation. the reaction is terminated by adding 500 microliters of ice cold 20% (w/v) trichloroacetic acid. The precipitate formed is transferred onto a glass fiber filter (Packard Unifilter-GF/B) and washed three times with ethanol. After the filter is dried, the radioactivity is determined by scintillation counting.
Regarding `Cc1cc2[nH]c(=O)c3ccccc3c2cc1NC(=O)Cc1ccc(F)cc1` [Compound 62], the negative-log IC50 (pIC50) is 6.35.
Take `C[C@H](NC(=O)c1ccc2c(c1)[nH]c(=O)c1ccccc12)C(=O)O` [Compound 32]: the pIC50 was 7.44.
On to `CCC(C)C(NC(=O)c1ccc2c(c1)[nH]c(=O)c1ccccc12)C(=O)O` (centres unmarked) [Compound 26], for which the pIC50 was 6.15.
In the case of `O=c1[nH]c2ccc(S(=O)(=O)N3CCCC(CO)C3)cc2c2ccccc12` (centres unmarked) [Compound 67], the pIC50 is 6.79.
As to `O=C(c1ccc2c(c1)[nH]c(=O)c1ccccc12)N1CCOCC1` [Compound 2], the pIC50 is 4.00.
For `Cc1ccc(S(=O)(=O)Nc2cc3c(cc2C)[nH]c(=O)c2ccccc23)cc1` [Compound 56] the value was 5.23; for `O=c1[nH]c2cc(S(=O)(=O)NCCN3CCOCC3)ccc2c2ccc(F)cc12` [Compound 44], 7.72; for `Cc1ccc(S(=O)(=O)Nc2ccc3[nH]c(=O)c4ccccc4c3c2)cc1` [Compound 1], 6.92.
For `O=c1[nH]c2ccc(S(=O)(=O)NCCN3CCOCC3)cc2c2ccccc12` [Compound 4], the pIC50 was 6.85.
For `O=C(O)[C@H]1CCCN1C(=O)c1ccc2c(c1)[nH]c(=O)c1ccccc12` [Compound 10] the value was 7.05; for `O=c1[nH]c2ccc(S(=O)(=O)NCCN(CCO)CCO)cc2c2ccccc12` [Compound 8], 7.22.
For `O=C(NCCc1ccccc1)c1ccc2c(c1)[nH]c(=O)c1cc(F)ccc12` [Compound 18] the value was 6.82.
On to `O=C(NCCN1CCOCC1)c1ccc2c(c1)[nH]c(=O)c1ccccc12` [Compound 9], for which the pIC50 was 7.40.
For the compound `COC(=O)[C@@H]1CCCN1C(=O)c1ccc2c(c1)[nH]c(=O)c1ccccc12` [Compound 41], the pIC50 was 6.93.
Consider `O=C(NCc1ccccc1)c1ccc2c(c1)[nH]c(=O)c1cc(F)ccc12` [Compound 16], for which the negative logarithm of the IC50 (pIC50) is 6.40.
On to `Cc1cccc2c(=O)[nH]c3cc(C(F)(F)F)c(NC(=O)CCl)cc3c12` [Compound 20], for which the pIC50 is 7.48.
With `O=c1[nH]c2ccc(S(=O)(=O)NCc3ccncc3)cc2c2ccccc12` [Compound 55], the pIC50 is 7.03.
For `Cc1cc2[nH]c(=O)c3ccccc3c2cc1NC(=O)CCl` [Compound 47] the value was 6.82; for `NCCN1CCN(S(=O)(=O)c2ccc3[nH]c(=O)c4ccccc4c3c2)CC1` [Compound 51], 7.00.
Regarding `O=c1[nH]c2ccc(S(=O)(=O)NC3CN4CCC3CC4)cc2c2ccccc12` (centres unmarked) [Compound 64], the pIC50 is 7.37.
Take `NCCCC[C@H](NC(=O)c1ccc2c(c1)[nH]c(=O)c1ccccc12)C(=O)O` [Compound 37]: the pIC50 is 7.06.
Consider `CCOC(=O)C1CCN(S(=O)(=O)c2ccc3[nH]c(=O)c4ccccc4c3c2)CC1` [Compound 65], for which the pIC50 was 6.70.
As for `O=C(O)[C@@H]1CCCN1C(=O)c1ccc2c(c1)[nH]c(=O)c1cc(F)ccc12` [Compound 21], the figure is 6.91; as for `CCCCC(NC(=O)c1ccc2c(c1)[nH]c(=O)c1ccccc12)C(=O)O` (centres unmarked) [Compound 29], 7.27; as for `O=C(NC(CO)C(=O)O)c1ccc2c(c1)[nH]c(=O)c1ccccc12` (centres unmarked) [Compound 30], 7.08.
For `CC(C)N(C(=O)c1ccc2c(c1)[nH]c(=O)c1ccccc12)C(C)C` [Compound 66] the value was 7.00; for `O=C(O)CCC(=O)Nc1ccc2[nH]c(=O)c3ccccc3c2c1` [Compound 27], 6.95.
In the case of `O=C(NCCN1CCOCC1)c1ccc2c(c1)[nH]c(=O)c1ccccc12` [Compound 40], the pIC50 was 7.46.
On to `O=C(N[C@@H](CS)C(=O)O)c1ccc2c(c1)[nH]c(=O)c1ccccc12` [Compound 35], for which the pIC50 was 7.08.
As to `O=C(Nc1ccc2[nH]c(=O)c3ccccc3c2c1)c1ccc(F)cc1` [Compound 31], the negative logarithm of the IC50 (pIC50) was 7.16.
With `Cc1cc2[nH]c(=O)c3ccccc3c2cc1NC(=O)C(C)Br` (centres unmarked) [Compound 63], the pIC50 was 6.76.
Regarding `COC(=O)c1ccc2c(c1)[nH]c(=O)c1cc(F)ccc12` [Compound 48], the pIC50 was 7.43.
On to `O=C(c1ccc(F)cc1)C1CCN(S(=O)(=O)c2ccc3[nH]c(=O)c4ccccc4c3c2)CC1` [Compound 61], for which the pIC50 is 6.50.
Regarding `O=c1[nH]c2ccc(S(=O)(=O)O)cc2c2ccccc12` [Compound 22], the pIC50 was 6.94.
Regarding `Cc1cc2[nH]c(=O)c3ccccc3c2cc1NC(=O)c1cccc(F)c1` [Compound 52], the pIC50 was 5.92.
`C[N+](C)(C)CC(=O)Nc1ccc2[nH]c(=O)c3ccccc3c2c1` [Compound 7]: the pIC50 was 7.52.
With `O=C(N[C@@H](Cc1ccc(F)cc1)C(=O)O)c1ccc2c(c1)[nH]c(=O)c1ccccc12` [Compound 33], the pIC50 was 7.35.
As to `O=C(CCl)Nc1ccc2[nH]c(=O)c3ccccc3c2c1` [Compound 5], the pIC50 was 7.10.
In the case of `CC(=O)NCCN1CCN(S(=O)(=O)c2ccc3[nH]c(=O)c4ccccc4c3c2)CC1` [Compound 68], the pIC50 was 6.85.
For `O=C(N[C@H](C(=O)O)c1ccccc1)c1ccc2c(c1)[nH]c(=O)c1ccccc12` [Compound 38], the pIC50 was 7.51.
In the case of `COC(=O)[C@@H]1CCCN1C(=O)c1ccc2c(c1)[nH]c(=O)c1cc(F)ccc12` [Compound 19], the pIC50 is 6.80.
Consider `NCCCCC(NC(=O)c1ccc2c(c1)[nH]c(=O)c1ccccc12)C(=O)O` (centres unmarked) [Compound 28], for which the pIC50 was 6.47.
Regarding `O=C(N[C@@H](Cc1ccccc1)C(=O)O)c1ccc2c(c1)[nH]c(=O)c1ccccc12` [Compound 34], the pIC50 was 7.19.
As for `CC(C)[C@H](NC(=O)c1ccc2c(c1)[nH]c(=O)c1ccccc12)C(=O)O` [Compound 39], the pIC50 is 7.60.
With `COC(=O)C1CCCN1S(=O)(=O)c1ccc2[nH]c(=O)c3ccccc3c2c1` (centres unmarked) [Compound 58], the pIC50 is 5.96.
For `O=C(NCCOCCO)c1ccc2c(c1)[nH]c(=O)c1ccccc12` [Compound 50] the value was 7.10; for `COc1ccc(S(=O)(=O)Nc2cc3c(cc2C)[nH]c(=O)c2ccccc23)cc1` [Compound 60], 4.94; for `Cc1cc2[nH]c(=O)c3ccccc3c2cc1NC(=O)CCc1ccccc1` [Compound 59], 5.12.
In the case of `O=c1[nH]c2ccc(S(=O)(=O)NCCN3CCCC3)cc2c2ccccc12` [Compound 53], the pIC50 is 7.13.
Turning to `CN1CCN(S(=O)(=O)c2ccc3c(c2)[nH]c(=O)c2cc(F)ccc23)CC1` [Compound 43], the pIC50 was 6.97.
For the compound `CC(=O)Nc1cc2c(cc1C)[nH]c(=O)c1ccccc12` [Compound 45], the pIC50 was 6.64.
For `CC(NC(=O)c1ccc2c(c1)[nH]c(=O)c1ccccc12)C(=O)O` (centres unmarked) [Compound 24] the value was 7.25.
As to `O=C(NC(Cc1ccc2ccccc2c1)C(=O)O)c1ccc2c(c1)[nH]c(=O)c1ccccc12` (centres unmarked) [Compound 42], the pIC50 is 7.72.
For `O=C(O)CCC(NC(=O)c1ccc2c(c1)[nH]c(=O)c1ccccc12)C(=O)O` (centres unmarked) [Compound 25], the pIC50 is 6.57.
In the case of `Cc1cc2[nH]c(=O)c3ccccc3c2cc1NC(=O)C[N+](C)(C)C` [Compound 54], the pIC50 is 6.71.
For the compound `O=C(NCCCc1ccccc1)c1ccc2c(c1)[nH]c(=O)c1cc(F)ccc12` [Compound 57], the pIC50 was 6.38.
